Biological target: GST-tagged truncated human mutant G2019S LRRK2 (Homo sapiens (Human), UniProt Q5S007, G2019S)
Experiment: LRRK2 G2019S Km ATP LanthaScreen assay
Format: biochemical
Conditions: G2019S LRRK2, 134 μM ATP (Km ATP), LRRKtide substrate; for IC50: read-out: LRRK2 pIC50 (converted)
Experimental: Unless otherwise noted, all reactions are magnetically allowed to stir, diethyl ether used in the experiments described below is Fisher ACS certified material stabilized with BHT, and “concentrated” and/or “solvent removed under reduced pressure” means evaporating the solvent from a solution or mixture using a rotary evaporator or vacuum pump. Unless otherwise noted, flash chromatography is carried out on a Teledyne Isco (Lincoln, NE), Analogix (Burlington, WI), or Biotage (Stockholm, SWE) automated chromatography system using a commercially available cartridge as the column. Columns may be purchased from Teledyne Isco, Analogix, Biotage, Varian (Palo Alto, CA), or Supelco (Bellefonte, PA) and are usually filled with silica gel as the stationary phase. Reverse phase prep-HPLC conditions, where used, can be found at the end of each experimental section. Aqueous solutions were concentrated on a Genevac (Ipswich, ENG) or by freeze-drying/lyophilization. Unless otherwise noted, all LRRK2 pIC50 data presented in tables refers to the LRRK2 G2019S Km ATP LanthaScreen™ assay (Life Technologies Corp., Carlsbad, CA) that is described in the Biological Assay section.
The LRRK2 kinase activity reported herein as IC50 values was determined with LanthaScreen™ technology from Life Technologies Corporation (Carlsbad, CA) using GST-tagged truncated human mutant G2019S LRRK2 in the presence of the fluorescein-labeled peptide substrate LRRKtide, also from Life Technologies. The data presented for the […] depending on the specific conditions and reagents used. Assays were performed in the presence of 134 μM ATP (Km ATP). Upon completion, the assay was stopped and phosphorylated substrate detected with a terbium (Tb)-labeled anti-pERM antibody (cat. no. PV4898). The compound dose response was prepared by diluting a 10 mM stock of compound to a maximum concentration of 9.99 μM in 100% dimethylsulfoxide followed by custom fold serial dilution in dimethylsulfoxide nine times. Twenty nanoliters of each dilution was spotted via a Labcyte Echo onto a 384-well black-sided plate (Corning 3575) followed by 15 μl of a 1.25 nM enzyme solution in 1× assay buffer (50 mM Tris pH 8.5, 10 mM MgCl2, 0.01% Brij-35, 1 mM EGTA, 2 mM dithiothreitol, 0.05 mM sodium orthovanadate). Following a 15-minute incubation at room temperature, the kinase reaction was started with the addition of 5 μl of 400 nM fluorescein-labeled LRRKtide peptide substrate and 134 μM ATP solution in 1× assay buffer. The reaction was allowed to progress at ambient temperature for 90 minutes. The reaction was then stopped by the addition of 20 μl of TR-FRET Dilution Buffer (Life Technologies, Carlsbad, CA) containing 2 nM Tb-labeled anti-phospho LRRKtide antibody and 10 mM EDTA (Life Technologies, Carlsbad, CA). After an incubation of 1 h at room temperature, the plate was read on an EnVision multimode plate reader (Perkin Elmer, Waltham, MA) with an excitation wavelength of 337 nm (Laser) and a reading emission at both 520 and 495 nm. Compound IC50s were interpolated from nonlinear regression best fits of the log of the final compound concentration, plotted as a function of the 520/495-nm emission ratio using Activity base. Abase uses a 4 parameter (4P) logistic fit based on the Levenberg-Marquardt algorithm.

Sequence of GST-tagged truncated human mutant G2019S LRRK2 (Q5S007 970-2527 G2019S): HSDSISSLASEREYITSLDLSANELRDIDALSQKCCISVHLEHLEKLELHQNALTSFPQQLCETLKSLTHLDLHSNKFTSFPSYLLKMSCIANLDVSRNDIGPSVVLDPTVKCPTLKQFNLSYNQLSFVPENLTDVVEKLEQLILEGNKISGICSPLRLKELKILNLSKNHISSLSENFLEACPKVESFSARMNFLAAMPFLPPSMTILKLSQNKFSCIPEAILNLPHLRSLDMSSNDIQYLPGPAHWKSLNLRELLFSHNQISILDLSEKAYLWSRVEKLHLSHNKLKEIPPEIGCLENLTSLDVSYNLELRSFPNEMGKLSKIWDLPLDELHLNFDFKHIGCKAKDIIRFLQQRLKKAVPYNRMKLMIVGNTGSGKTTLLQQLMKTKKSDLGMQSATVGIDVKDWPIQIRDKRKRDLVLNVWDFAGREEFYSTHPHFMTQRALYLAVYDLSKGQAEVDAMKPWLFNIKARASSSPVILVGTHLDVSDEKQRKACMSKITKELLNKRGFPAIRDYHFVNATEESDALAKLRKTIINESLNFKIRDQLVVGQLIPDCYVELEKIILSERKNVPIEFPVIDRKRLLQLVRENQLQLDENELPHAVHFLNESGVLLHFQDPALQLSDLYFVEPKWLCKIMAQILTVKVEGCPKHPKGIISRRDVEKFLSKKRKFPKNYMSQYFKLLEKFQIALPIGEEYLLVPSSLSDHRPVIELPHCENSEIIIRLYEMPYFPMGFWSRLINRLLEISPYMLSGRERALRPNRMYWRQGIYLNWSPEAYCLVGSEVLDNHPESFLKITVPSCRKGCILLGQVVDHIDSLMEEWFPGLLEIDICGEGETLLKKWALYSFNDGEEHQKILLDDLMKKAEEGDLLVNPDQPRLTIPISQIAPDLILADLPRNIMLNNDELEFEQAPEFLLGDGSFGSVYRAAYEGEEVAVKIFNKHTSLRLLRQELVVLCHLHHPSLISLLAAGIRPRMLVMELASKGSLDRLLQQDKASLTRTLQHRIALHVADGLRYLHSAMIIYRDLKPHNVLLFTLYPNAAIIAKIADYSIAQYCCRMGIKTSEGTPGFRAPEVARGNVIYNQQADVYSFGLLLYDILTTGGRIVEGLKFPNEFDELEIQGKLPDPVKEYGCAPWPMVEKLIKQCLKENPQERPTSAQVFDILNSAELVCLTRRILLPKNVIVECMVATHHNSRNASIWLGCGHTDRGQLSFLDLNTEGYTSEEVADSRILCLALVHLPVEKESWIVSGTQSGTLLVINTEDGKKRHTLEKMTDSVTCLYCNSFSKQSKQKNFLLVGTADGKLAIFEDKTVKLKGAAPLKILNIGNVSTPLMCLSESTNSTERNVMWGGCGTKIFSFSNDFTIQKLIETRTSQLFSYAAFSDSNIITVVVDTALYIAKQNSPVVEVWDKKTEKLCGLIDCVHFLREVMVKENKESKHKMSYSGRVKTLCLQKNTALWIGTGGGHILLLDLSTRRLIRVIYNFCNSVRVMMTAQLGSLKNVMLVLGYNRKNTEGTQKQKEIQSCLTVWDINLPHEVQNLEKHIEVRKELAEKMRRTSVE

## Cc1nn(C2CCC2)c2c1OCC[C@H]1COCCN1c1nc(ncc1C(F)(F)F)N2 (single isomer, unassigned) [Ex-21.4, (R) or (S)-3-cyclobutyl-1-methyl-8-(trifluoromethyl)-3,4,11,12,14,14a,15,16-octahydro-5,9-(azeno)[1,4]oxazino[4,3-j]pyrazolo[4,3-b][1]oxa[4,6,10]triazacyclotridecine]
  IC50: 2.45 µM

## FC(F)(F)c1cnc2nc1NC1CCC1COc1c(C3CCOC3)nn(C3CCC3)c1N2 [Ex-2.62, (10aR,12aR)-3-cyclobutyl-1-((R)-(10aR,12aR)-3-cyclobutyl-1-((S)-(10aS,12aS)-3-cyclobutyl-1-((R)-(10aS,12aS)-3-cyclobutyl-1-((S)-tetrahydrofuran-3-yl)-8-(trifluoromethyl)-3,4,10,10a,11,12,12a,13-octahydro-5,9-(azeno)cyclobuta[k]pyrazolo[4,3-b][1]oxa[4,6,10]triazacyclotridecine]
  LRRK2 pIC50: 6.88

## Cn1nc(C(F)(F)F)c2c1Nc1ncc(Cl)c(n1)N[C@@H]1COC[C@H]1CO2 [Ex-2.75, (10aS,13aS)-8-chloro-3-methyl-1-(trifluoromethyl)-3,4,10a,11,13a,14-hexahydro-10H,13H-5,9-(azeno)furo[3,4-k]pyrazolo[4,3-b][1]oxa[4,6,10]triazacyclotridecine]
  LRRK2 pIC50: 9.50

## Cc1nn(C(C)C)c2c1OC[C@@H]1CC[C@H]1Nc1cc(ncc1Cl)N2 [Ex-13.4, (10aR,12aR)-8-chloro-3-isopropyl-1-methyl-3,4,10,10a,11,12,12a,13-octahydro-5,9-(metheno)cyclobuta[k]pyrazolo[4,3-b][1]oxa[4,6,10]triazacyclotridecine]
  LRRK2 pIC50: 9.61

## N#CC1CC1c1nn(C2CCC2)c2c1OC[C@@H]1COC[C@H]1Nc1nc(ncc1C(F)(F)F)N2 (single isomer, unassigned) [Ex-2.51, (1R,2R)- or (1S,2S)-2-((10aS,13aS)-3-cyclobutyl-8-(trifluoromethyl)-3,4,10a,11,13a, 14-hexahydro-10H,13H-5,9-(azeno)furo[3,4-k]pyrazolo[4,3-b][1]oxa[4,6,10]triazacyclotridecin-1-yl)cyclopropane-1-carbonitrile]
  LRRK2 pIC50: 9.05

## OCc1nn(C2CCC2)c2c1OC[C@@H]1COC[C@H]1Nc1nc(ncc1C(F)(F)F)N2 [Ex-6.6, ((10aS,13aS)-3-cyclobutyl-8-(trifluoromethyl)-3,4,10a,11,13a,14-hexahydro-10H,13H-5,9-(azeno)furo[3,4-k]pyrazolo[4,3-b][1]oxa[4,6,10]triazacyclotridecin-1-yl)methanol]
  LRRK2 pIC50: >10.09

## CC(C)c1nn(C(C)(C)C#N)c2c1Nc1ncc(C3CC3)c(n1)N[C@@H]1COC[C@H]1CO2 [Ex-1.15, 2-((10aS,13aS)-8-cyclopropyl-3-isopropyl-10a,11,13a,14-tetrahydro-10H,13H-5,9-(azeno)furo[3,4-k]pyrazolo[3,4-b][1]oxa[4,6,10]triazacyclotridecin-1(4H)-yl)-2-methylpropanenitrile]
  LRRK2 pIC50: 8.27

## Cc1nn(C)c2c1OCC1(CNc3nc(ncc3C(F)(F)F)N2)CC12CCOCC2 (single isomer, unassigned) [Ex-2.16, (R)- or (S)-1″,3″-dimethyl-10″- (trifluoromethyl)-1″,2,3,5,6,7″,8″,14″. octahydro-5″H-dispiro[pyran-4,1′-cyclopropane-2′,6″- [9,13](azeno)pyrazolo[4,3-b][1]oxa[4,6,10]triazacyclotridecine]]
  LRRK2 pIC50: 7.93

## Cn1nc(C(F)(F)F)c2c1OC[C@@H]1COC[C@H]1Nc1nc(ncc1Cl)N2 [Ex-1.13, (10aS,13aS)-8-chloro-1-methyl-3-(trifluoromethyl)-1,4,10a,11,13a,14-hexahydro-10H,13H-5,9-(azeno)furo[3,4-k]pyrazolo[3,4-b][1]oxa[4,6,10]triazacyclotridecine]
  LRRK2 pIC50: 7.99

## Cc1nn(C(C)(C)CO)c2c1Nc1ncc(C(F)(F)F)c(n1)N[C@H](C)CCO2 [Ex-7.3, (R)-2-(3,11-dimethyl-8-(trifluoromethyl)-10,11,12,13-tetrahydro-5,9-(azeno)pyrazolo[3,4-b][1]oxa[4,6,10]triazacyclotridecin-1(4H)-yl)-2-methylpropan-1-ol]
  LRRK2 pIC50: >10.09

## Cc1nn(C(C)C)c2c1OC[C@@H]1COC[C@H]1Nc1cc(ncc1C(F)(F)F)N2 [Ex-13.5, (10aS,13aS)-3-isopropyl-1-methyl-8-(trifluoromethyl)-3,4,10a,11,13a,14-hexahydro-10H,13H-5,9-(metheno)furo[3,4-k]pyrazolo[4,3-b][1]oxa[4,6,10]triazacyclotridecine]
  LRRK2 pIC50: >10.09

## Cc1nn(C2CCC2)c2c1OC[C@@H]1COC[C@H]1Nc1nc(ncc1C(F)(F)F)N2 (single isomer, unassigned) [Ex-2.27, (3aR,15aR)- or (3aS,15aS)-11-cyclobutyl-13-methyl-6-(trifluoromethyl)-2,3,3a,4,10,11,15,15a-octahydro-5,9-(azeno)furo[3,2-k]pyrazolo[4,3-b][1]oxa[4,6,10]triazacyclotridecine]
  LRRK2 pIC50: 6.47

## COC1CC(n2nc(C)c3c2Nc2ncc(C(F)(F)F)c(n2)NC2COCC2CO3)C1 (single isomer, unassigned) [Ex-2.31, (10aS,13aS)- or (10aR,13aR)-3-((1R,3S)-3-methoxycyclobutyl)-1-methyl-8-(trifluoromethyl)-3,4,10a,11,13a,14-hexahydro-10H,13H-5,9-(azeno)furo[3,4-k]pyrazolo[4,3-b][1]oxa[4,6,10]triazacyclotridecine]
  IC50: 0.288 µM

## CCOC(=O)[C@@H]1C[C@@H]1c1nn(C(C)C)c2c1OC[C@@H]1COC[C@H]1Nc1nc(ncc1C(F)(F)F)N2 [Ex-2.46, ethyl (1R,2S)- or ethyl (1S,2R)-2-((10aS,13aS)-3-isopropyl-8-(trifluoromethyl)-3,4,10a,11,13a,14-hexahydro-10H,13H-5,9-(azeno)furo[3,4-k]pyrazolo[4,3-b][1]oxa[4,6,10]triazacyclotridecin-1-yl)cyclopropane-1-carboxylate]
  LRRK2 pIC50: 6.66

## COC1CC(n2nc(C)c3c2Nc2ncc(C(F)(F)F)c(n2)N[C@@H]2CC[C@H]2CO3)C1 (stereo partly drawn) [Ex-2.78, (10aR,12aR)-3-(3-methoxycyclobutyl)-1-methyl-8-(trifluoromethyl)-3,4,10,10a,11,12,12a,13-octahydro-5,9-(azeno)cyclobuta[k]pyrazolo[4,3-b][1]oxa[4,6,10]triazacyclotridecine]
  LRRK2 pIC50: >10.09

## Cc1nn(C2CCC2)c2c1OCC1CCCC1Nc1nc(ncc1C(F)(F)F)N2 [Ex-5.5, (10aR,13aR)- or (10aS,13aS)-3-cyclobutyl-1-methyl-8-(trifluoromethyl)-3,4,10a,11,12,13,13a,14-octahydro-10H-5,9-(azeno)cyclopenta[k]pyrazolo[4,3-b][1]oxa[4,6, 10]triazacyclotridecine]
  LRRK2 pIC50: 10.06

## Cc1nn2c(c1C)Nc1ncc(C(F)(F)F)c(n1)N[C@@H](C)CCC2 (single isomer, unassigned) [Ex-16.1, 8,14,15-Trimethyl-5-(trifluoromethyl)-8,9,10,11-tetrahydro-1H,7H-2,6-(azeno)pyrazolo[1,5-a][1,3,5,9]tetraazacyclotridecine]
  LRRK2 pIC50: 7.70

## Cc1ccc2c(n1)OC[C@@H]1COC[C@H]1Nc1nc(ncc1C(F)(F)F)N2 [Ex-15.7, (11aS,14aS)-2-methyl-9-(trifluoromethyl)-11a,12,14a,15-tetrahydro-5H,11H,14H6,10-(azeno)furo[3,4-k]pyrido[2,3-b][1]oxa[4,6,10]triazacyclotridecine]
  LRRK2 pIC50: 10.01

From patent publication US20250313575A1, “MACROCYCLES AS LRRK2 INHIBITORS, PHARMACEUTICAL COMPOSITIONS, AND USES THEREOF” (Merck Sharp & Dohme LLC, priority 2022, published 2025)
